Measurements reported in the supplement of paper PMC10307832.

Experiments:
Assay in all cases: relative viability (nuclei count vs DMSO), 5 days (fraction); higher = more cells survive
NCI-H2228 = tested on: NCI-H2228
Outline: (§1)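 Dosing by pin tool came one day after lung cancer cell lines were seeded in 1536-well plates, using either one drug or a fixed anchor-drug dose plus five library-drug doses (not always all listed) in √10 steps. After 5 days, nuclei were counted on 4× images. Relative viability is treated-well nuclei count divided by vehicle-well nuclei count, and values are medians of duplicate plates.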

PC-14 = tested on: PC-14
Outline: as §1

NCI-H661 = tested on: NCI-H661
Outline: as §1

SK-MES-1 = tested on: SK-MES-1
Outline: as §1

CAL-12T = tested on: CAL-12T
Outline: as §1

NCI-H2087 = tested on: NCI-H2087
Outline: as §1

NCI-H1666 = tested on: NCI-H1666
Outline: as §1

NCI-H1395 = tested on: NCI-H1395
Outline: as §1

NCI-H358 = tested on: NCI-H358
Outline: as §1

NCI-H838 = tested on: NCI-H838
Outline: as §1

ABC-1 = tested on: ABC-1
Outline: as §1

NCI-H1355 = tested on: NCI-H1355
Outline: as §1

NCI-H1651 = tested on: NCI-H1651
Outline: as §1

UMC-11 = tested on: UMC-11
Outline: as §1

NCI-H2085 = tested on: NCI-H2085
Outline: as §1

PC-3 [JPC-3] = tested on: PC-3 [JPC-3]
Outline: as §1

LK-2 = tested on: LK-2
Outline: as §1

NCI-H1915 = tested on: NCI-H1915
Outline: as §1

H3255 = tested on: H3255
Outline: as §1

A-427 = tested on: A-427
Outline: as §1

LCLC-97TM1 = tested on: LCLC-97TM1
Outline: as §1

NCI-H322M = tested on: NCI-H322M
Outline: as §1

SMILES: O=c1[nH]c2ccccc2n1C1CCN(CCCC(c2ccc(F)cc2)c2ccc(F)cc2)CC1 [Pimozide] + COc1cc2c(Oc3ccc(NC(=O)C4(C(=O)Nc5ccc(F)cc5)CC4)cc3F)ccnc2cc1OCCCN1CCOCC1 [Foretinib] (partner 0.25 µM)
- relative viability (NCI-H2228; first compound 0.08 µM): 0.863
- relative viability (NCI-H2228; first compound 0.253 µM): 0.839
- relative viability (NCI-H2228; first compound 0.8 µM): 0.574
- relative viability (NCI-H2228; first compound 2.53 µM): 0.831
- relative viability (NCI-H2228; first compound 8 µM): 0.612
- relative viability (PC-14; first compound 0.253 µM): 1
- relative viability (PC-14; first compound 0.8 µM): 0.943
- relative viability (PC-14; first compound 2.53 µM): 0.965
- relative viability (PC-14; first compound 8 µM): 1.02
- relative viability (NCI-H661; first compound 0.08 µM): 1.02
- relative viability (NCI-H661; first compound 0.253 µM): 1.03
- relative viability (NCI-H661; first compound 0.8 µM): 0.929
- relative viability (NCI-H661; first compound 2.53 µM): 0.921
- relative viability (NCI-H661; first compound 8 µM): 0.907
- relative viability (SK-MES-1; first compound 0.08 µM): 0.614
- relative viability (SK-MES-1; first compound 0.253 µM): 0.955
- relative viability (SK-MES-1; first compound 0.8 µM): 1.06
- relative viability (SK-MES-1; first compound 2.53 µM): 1.06
- relative viability (SK-MES-1; first compound 8 µM): 0.94
- relative viability (CAL-12T; first compound 0.08 µM): 0.979
- relative viability (CAL-12T; first compound 0.253 µM): 1.17
- relative viability (CAL-12T; first compound 0.8 µM): 1.11
- relative viability (CAL-12T; first compound 2.53 µM): 0.928
- relative viability (CAL-12T; first compound 8 µM): 0.96
- relative viability (NCI-H2087; first compound 0.08 µM): 1.21
- relative viability (NCI-H2087; first compound 0.253 µM): 0.984
- relative viability (NCI-H2087; first compound 2.53 µM): 1.17
- relative viability (NCI-H2087; first compound 8 µM): 1.09
- relative viability (NCI-H1666; first compound 0.08 µM): 0.952
- relative viability (NCI-H1666; first compound 0.253 µM): 0.939
- relative viability (NCI-H1666; first compound 0.8 µM): 0.941
- relative viability (NCI-H1666; first compound 2.53 µM): 0.867
- relative viability (NCI-H1666; first compound 8 µM): 0.857
- relative viability (NCI-H1395; first compound 0.08 µM): 1.02
- relative viability (NCI-H1395; first compound 0.253 µM): 0.975
- relative viability (NCI-H1395; first compound 0.8 µM): 0.953
- relative viability (NCI-H1395; first compound 2.53 µM): 1.03
- relative viability (NCI-H1395; first compound 8 µM): 0.91
- relative viability (NCI-H358; first compound 0.08 µM): 0.671
- relative viability (NCI-H358; first compound 0.253 µM): 0.661
- relative viability (NCI-H358; first compound 0.8 µM): 0.578
- relative viability (NCI-H358; first compound 2.53 µM): 0.562
- relative viability (NCI-H358; first compound 8 µM): 0.695
- relative viability (NCI-H838; first compound 0.08 µM): 1.02
- relative viability (NCI-H838; first compound 0.253 µM): 1.11
- relative viability (NCI-H838; first compound 0.8 µM): 1.08
- relative viability (NCI-H838; first compound 2.53 µM): 1.03
- relative viability (NCI-H838; first compound 8 µM): 1.04
- relative viability (ABC-1; first compound 0.08 µM): 1.11
- relative viability (ABC-1; first compound 0.253 µM): 0.995
- relative viability (ABC-1; first compound 0.8 µM): 0.723
- relative viability (ABC-1; first compound 2.53 µM): 0.891
- relative viability (ABC-1; first compound 8 µM): 0.767
- relative viability (NCI-H1355; first compound 0.08 µM): 0.808
- relative viability (NCI-H1355; first compound 0.253 µM): 0.923
- relative viability (NCI-H1355; first compound 0.8 µM): 0.888
- relative viability (NCI-H1355; first compound 2.53 µM): 0.886
- relative viability (NCI-H1355; first compound 8 µM): 1
- relative viability (NCI-H1651; first compound 0.08 µM): 0.763
- relative viability (NCI-H1651; first compound 0.253 µM): 0.717
- relative viability (NCI-H1651; first compound 0.8 µM): 0.867
- relative viability (NCI-H1651; first compound 2.53 µM): 0.871
- relative viability (NCI-H1651; first compound 8 µM): 0.869
- relative viability (UMC-11; first compound 0.08 µM): 1.05
- relative viability (UMC-11; first compound 0.253 µM): 1.01
- relative viability (UMC-11; first compound 0.8 µM): 1
- relative viability (UMC-11; first compound 2.53 µM): 1.14
- relative viability (UMC-11; first compound 8 µM): 1.07
- relative viability (NCI-H2085; first compound 0.08 µM): 0.956
- relative viability (NCI-H2085; first compound 0.253 µM): 0.899
- relative viability (NCI-H2085; first compound 0.8 µM): 1.1
- relative viability (NCI-H2085; first compound 2.53 µM): 0.909
- relative viability (NCI-H2085; first compound 8 µM): 0.949
- relative viability (PC-3 [JPC-3]; first compound 0.08 µM): 0.839
- relative viability (PC-3 [JPC-3]; first compound 0.253 µM): 1.03
- relative viability (PC-3 [JPC-3]; first compound 0.8 µM): 0.952
- relative viability (PC-3 [JPC-3]; first compound 2.53 µM): 0.931
- relative viability (PC-3 [JPC-3]; first compound 8 µM): 0.86
- relative viability (LK-2; first compound 0.08 µM): 1.65
- relative viability (LK-2; first compound 0.253 µM): 0.98
- relative viability (LK-2; first compound 2.53 µM): 0.875
- relative viability (LK-2; first compound 8 µM): 1.24
- relative viability (NCI-H1915; first compound 0.08 µM): 1.05
- relative viability (NCI-H1915; first compound 0.253 µM): 1.01
- relative viability (NCI-H1915; first compound 0.8 µM): 0.855
- relative viability (NCI-H1915; first compound 2.53 µM): 0.974
- relative viability (NCI-H1915; first compound 8 µM): 1.05
- relative viability (H3255; first compound 0.253 µM): 0.781
- relative viability (H3255; first compound 0.8 µM): 0.775
- relative viability (H3255; first compound 2.53 µM): 0.78
- relative viability (H3255; first compound 8 µM): 0.894
- relative viability (A-427; first compound 0.08 µM): 1.02
- relative viability (A-427; first compound 0.253 µM): 1.04
- relative viability (A-427; first compound 0.8 µM): 0.976
- relative viability (A-427; first compound 2.53 µM): 0.669
- relative viability (A-427; first compound 8 µM): 0.966
- relative viability (LCLC-97TM1; first compound 0.08 µM): 0.926
- relative viability (LCLC-97TM1; first compound 0.253 µM): 1.03
- relative viability (LCLC-97TM1; first compound 0.8 µM): 0.823
- relative viability (LCLC-97TM1; first compound 2.53 µM): 0.852
- relative viability (LCLC-97TM1; first compound 8 µM): 0.789
- relative viability (NCI-H322M; first compound 0.253 µM): 1.04
- relative viability (NCI-H322M; first compound 0.8 µM): 0.85
- relative viability (NCI-H322M; first compound 2.53 µM): 0.942
- relative viability (NCI-H322M; first compound 8 µM): 0.844
